ChEMBL document CHEMBL3112566, “Thiazolopyridone ureas as DNA gyrase B inhibitors: optimization of antitubercular activity and efficacy” (Bioorg Med Chem Lett, 2014)

Experiment: AUC in mouse at 300 mg/kg, po
Type: ADME, organism-based
Set-up: dose 300 mg/kg, route oral
Settings: plasma

## CCNC(=O)Nc1nc2cc(-c3cccnc3)c(=O)n(C(C)C)c2s1
  AUC: 981 µM·h
